The record followed here is PubChem BioAssay AID1996.

Each structure is given as a SMILES string. In brackets after ≈: the same amount, converted by molar mass.

The conditions of the series: buffer; pH 7.4; 200.0 µM.
Turning to `CCC1(CC)Cc2ccccc2-c2nc(NCCCO)[nH]c(=O)c21`, the kinetic solubility (usually solubility judged after dilution from a stock solution rather than from solid) came to 42 µg/mL (≈ 128 µM).
With `CCOc1ccc(N2C(=O)C3CCCN3C2=S)cc1` (stereo unspecified) the figure was more than 41.5 µg/mL.
The value for `Cc1ccc(NC(=O)C2CCN(S(C)(=O)=O)CC2)cc1Cl` was 16.4 µg/mL (≈ 49.6 µM).
With `CNc1nc(N)c(C(=O)Nc2cc(C)on2)s1` the figure was 35.4 µg/mL (≈ 140 µM).
For `O=C1Nc2ccc(Br)cc2C1(O)c1ccc(F)cc1` (stereo unspecified), the kinetic solubility is more than 48.3 µg/mL.
The value for `O=C(NCC(O)c1ccc2ccccc2c1)c1c(F)cccc1F` (stereo unspecified) was 41.9 µg/mL (≈ 128 µM); that for `O=C1CCCC(O)=C1C=NCc1ccccc1` was more than 34.4 µg/mL; that for `CC1CCN(CCCNc2cc(NCCO)c([N+](=O)[O-])c3nonc23)CC1` was more than 56.8 µg/mL.
The value for `CCCCOc1ccc(C(=O)NCC(=O)OCC(=O)c2c(N)n(C)c(=O)n(C)c2=O)cc1` was 10.9 µg/mL (≈ 24.4 µM); that for `CCCC(=O)OC/C(O)=C(\C#N)c1nc2ccccc2[nH]1` was 32.4 µg/mL (≈ 114 µM); that for `CC(N)Cc1cn(Cc2ccccc2)c2ccccc12.Cl` (stereo unspecified) was more than 45.1 µg/mL.
With `O=C(CN1CCCCCC1)NCC1CCCO1.O=C(O)C(=O)O` (stereo unspecified) the figure was more than 49.6 µg/mL.
Take `CC(=O)Oc1ccc2oc(-c3ccccc3)c(C(N)=O)c2c1`: the kinetic solubility is 1.4 µg/mL (≈ 4.74 µM).
The value for `CCCS(=O)(=O)N1CCCC(C(=O)c2cccc(Cl)c2)C1` (stereo unspecified) was 44.7 µg/mL (≈ 136 µM); that for `CC1CCCC(NC(=O)COC(=O)/C=C/c2ccc(F)cc2)C1C` (stereo unspecified) was 3.3 µg/mL (≈ 9.9 µM).
Regarding `Cc1cc(-c2ccccc2)nc(-c2ccccc2)c1C`, the kinetic solubility was less than 0.6 µg/mL.
In the case of `CCCc1cnc(N2CCN(S(C)(=O)=O)CC2)nc1`, the solubility (kinetic) is more than 42.7 µg/mL.
`Cc1cc2ncc(-c3ccccc3)nc2cc1C` had a solubility (kinetic) of less than 0.3 µg/mL.
The value for `O=C(NNC(=S)NC(=O)c1cccs1)c1cccnc1` was more than 46 µg/mL.
With `O=C1NC(=Nc2ccccc2)CS1` the figure was more than 28.8 µg/mL; with `Cc1ccccc1C(=O)NCCCNC(=O)c1ccco1`, 42.9 µg/mL (≈ 150 µM).
With `O=C(COC(=O)CCC(=O)N1CCOCC1)Nc1ccc(Br)cc1Br` the figure was more than 71.7 µg/mL.
`CN(c1ccccc1)c1nc(N)c([N+](=O)[O-])c(NC2CCCCC2)n1` had a kinetic solubility of less than 0.1 µg/mL.
With `COc1cc(OC)c(OC)cc1CNCCNC(=O)c1ccco1` the figure was 44.5 µg/mL (≈ 133 µM); with `Cc1ccc(F)cc1NC(=O)CN1CCN(c2ccccn2)CC1`, more than 49.3 µg/mL; with `CNC(=O)/C(C#N)=C/c1ccc(OCCOc2ccccc2)cc1`, 2.3 µg/mL (≈ 7.13 µM).
For `CN(C)C(=O)c1cnc(-c2ccccc2)nc1-c1ccccc1`, the solubility (kinetic) is more than 45.5 µg/mL.
In turn, `Cc1ccc(NC(=O)CCC(=O)c2cccs2)nc1` returned a solubility (kinetic) of 34.6 µg/mL (≈ 126 µM).
The value for `O=C(Nc1ccccc1)C1CCCCN1S(=O)(=O)c1ccccc1` (stereo unspecified) was more than 51.7 µg/mL; that for `O=C(O)c1ccc2c(=O)n3c(nc2c1)/C(=C/c1ccc(F)cc1)CC3` was more than 50.4 µg/mL; that for `CN1CCN(c2oc(Cc3cccc4ccccc34)nc2C#N)CC1` was 43.5 µg/mL (≈ 131 µM).
Molecule `O=C(CSc1nc2ccccc2o1)Nc1nccs1` showed a kinetic solubility of 2 µg/mL (≈ 6.86 µM).
`Cc1ccc(OCC(=O)NCCCNC(=O)c2cnccn2)cc1C` came in with a kinetic solubility of 49.9 µg/mL (≈ 146 µM).
With `O=C1CSC(=S)N1c1ccc(O)cc1` the figure was 28.1 µg/mL (≈ 125 µM); with `Cc1ccc(NC(=O)CN2CCN(Cc3ccccc3)CC2)cc1Cl`, 7.7 µg/mL (≈ 21.5 µM); with `O=C(Nc1nccs1)c1ccc(Br)s1`, 5.6 µg/mL (≈ 19.4 µM).
The value for `COc1cc2c(cc1OC)C(c1ccccc1C)CC(=O)N2` (stereo unspecified) was less than 0.6 µg/mL.
`Cc1cc(C)c2nc(NC(=O)c3ccc([N+](=O)[O-])o3)sc2c1` had a solubility (kinetic) of less than 0.2 µg/mL.
The value for `COC(=O)c1cc(-c2cccc(OC)c2)c2c(=O)[nH]c(=O)n(C)c2n1` was 3.4 µg/mL (≈ 9.96 µM); that for `CN1C2=CC=CC=CC2=[N+](C)C12C([N+](=O)[O-])=CC(=[N+]([O-])[O-])C=C2[N+](=O)[O-]` (stereo unspecified) was 0.7 µg/mL (≈ 1.95 µM); that for `Cc1ccc(NC(=O)CCN2CC(C)OC(C)C2)cc1.Cl` (stereo unspecified) was more than 46.9 µg/mL.
